In experiment [1] the test system is HBV (genotype D). The experiment can be described thus: HBV spreading in humanized uPA/SCID mice, treatment from 3 weeks post-infection. It counts as in vivo, uPA/SCID mice repopulated with primary human hepatocytes. Conditions: for cccDNA measurements versus mice sacrificed 3 weeks post HBV infection: treated from week 3 to week 9 post-infection.
Experiment [2] deals with HBsAg serotypes (adw, ady and ayw). Description: ELISA binding to HBsAg serotypes. Also on record: species or system hepatitis B virus. The following applies: similar and low EC50 values. (In an ELISA, binding on a coated surface is turned into a signal by an enzyme label.)
For experiment [3], the system named is HBV. Description: HBV neutralization on differentiated HepaRG cells. It counts as cell-based, hepatitis B virus. The following applies: HBC34 result at 5 and 0.5 μg/ml, antibodies tested at 5, 0.5 and 0.05 μg/ml. The protocol: At the end of the incubation, the cells were washed and further cultivated. Medium was changed every 3 days. Infection was detected by measuring in enzyme-linked immunosorbent assay (ELISA) the levels of hepatitis B surface antigen (HBsAg) and hepatitis B e antigen (HBeAg) secreted into the culture supernatant from day 7 to 11 post-infection and by detecting HBcAg staining in an immunofluorescence assay.

The test system of experiment [4] is 19 different HBsAg genotype D mutants. The format is binding, hepatitis B virus. Conditions: 5 μg/ml.
Experiment [5] deals with antigenic loop region of the HBsAg. The format is binding, hepatitis B virus. Conditions: antibody at 1 μg/ml.
The subject of experiment [6] is HBV viral particles. The experiment can be described thus: Western blot on HBV viral particles under reducing conditions. It counts as binding, hepatitis B virus. The text has this: Ab4 is a comparative antibody, which is also reactive against the antigenic loop.
The test system of experiment [7] is HBsAg (adw subtype). The experiment can be described thus: ELISA binding of HBC34 variants to HBsAg adw antigen. Also on record: species or system hepatitis B virus. Conditions: Example 11, 18 variants, FIG. 21.

Some results are limits rather than exact numbers.

The record followed here is US11390664B2, “Antibodies that potently neutralize hepatitis B virus and uses thereof” (priority 2015, dated 2022).

`C=C1[C@H](CO)[C@@H](O)C[C@@H]1n1cnc2c(=O)[nH]c(N)nc21` [entecavir, reference compound]: the “cccDNA measurements versus mice sacrificed 3 weeks post HBV infection” value in experiment [1] is “did not differ significantly”.
As for “HBC34: IgG1-type fully human monoclonal antibody against HBsAg antigenic loop; VH SEQ ID NO: 41, VL SEQ ID NO: 42”, in experiment [2], the “binding to three HBsAg serotypes (adw, ady and ayw)” value is “binds with high affinity”. Besides, the “neutralization of HBV infection” value in experiment [3] is recorded as “neutralized completely”. The “number of the 19 HBsAg mutants bound” value in experiment [4] is on record as 18. Further, the “binding to three additional peptides (SEQ ID NO 53, 54, 55)” value in experiment [5] is reported as “recognized with a lower signal”. The “reactivity in western blot” value in experiment [6] was “does not react at all”. Further, the “decrease of levels of circulating HBsAg” value in experiment [1] (baseline to week 6 of treatment (week 9 post-infection)) is listed as over 1 log. In experiment [1], the “cccDNA measurements versus mice sacrificed 3 weeks post HBV infection” value was “did not differ significantly”.

B1: HBC34-v2: HBC34 variant, W107F in the CDR3 of the VH and W107A in the CDR3 of the VL (antibody, V domains shown)
VH: ELQLVESGGGWVQPGGSQRLSCAASGRIFRSFYMSWVRQAPGKGLEWVATINQDGSEKLYVDSVKGRFTISRDNAKNSLFLQMNNLRVEDTAVYYCAAFSGNSGGMDVWGQGTTVSVSS
VL: SYELTQPPSVSVSPGQTVSIPCSGDKLGNKNVCWFQHKPGQSPVLVIYEVKYRPSGIPERFSGSNSGNTATLTISGTQAMDEAAYFCQTADSTTVVFGGGTRLTVL
B1: the “effect of mutation(s) on binding to HBsAg compared with parental HBC34” value in experiment [7] is “completely abolished”.
